Test results: patent US10472341B2, “Bicyclic tetrahydrothiazepine derivatives useful for the treatment of neoplastic and/or infectious diseases” (APEIRON BIOLOGICS AG, priority 2015, dated 2019)
Structures can show the parent of a compound that is named as a salt.

What was measured:
OT-I T cells = assay: OT-I transfer to mice with B16-F10-OVA tumors: tumor antigen-specific T cell proliferation; type: in vivo, mouse; conditions: B16-F10-OVA tumor bearing mice; for OT-I T cell proliferation: 10 mg/kg orally; for Proliferation [% proliferated OT-I T cells]: 10 mg/kg dosed orally
Experimental: (§1) • Single cell suspension of splenocytes was prepared from the spleen by rinsing cells through a sterile 70 μm filter with PBS • Cells were collected by centrifugation in an 15 ml tube, the cell pellet was resuspended in 1 ml of Erylyse buffer and incubated at room temperature for 5 minutes, tubes were filled up with PBS and cells were washed twice • Cells were counted and resuspended in the desired buffer volume for MACS-enrichment or flow cytometric analysis Isolation of CD4 T Cells from OT-II Transgenic Mice • Splenocytes were resuspended in MACS buffer ([…] MACS-buffer/10^7 cells) • CD4 T cells were isolated using the CD4 T cell isolation kit (Miltenyi) with LS-columns following manufacturer's recommendations CFSE-Labeling of T Cells • Cells were resuspended in PBS with 0.1% BSA at 1×10^7 cells/ml and CFSE-solution was added to final concentration of 2.5 μM CFSE • Incubated for 10 min at 37° C., swung each 2 min • Same volume of FCS added and incubated for 5 min at room temperature • Cells were washed twice with RMPI-10% FCS medium • Cells were counted and resuspended in PBS or medium at desired concentration OT-II Transfer • Day 0: OT-II cells were transferred in PBS (3*10^6. Cells in 100 μl PBS) by retro-orbital injection • Day 1: WT mice got OVA vaccinated (subcut. flank, 10 μg LPS, 2 μg OVA per animal) • 2 & 4 h later compounds were administrated; for oral dosing compound was used as suspension (0.5% methylcellulose in water), for i.v. dosing compound was solubilized in DMSO and diluted with PBS • Day 2: compounds were administrated twice in the morning (with 2 h time interval) • Day 3: Mice were sacrificed & splenocytes were isolated • T cell proliferation & phenotype was determined by flow cytometry • Flow cytometry-Staining (all Abs purchased from eBioscience and used as recommended by the manufacturer): B220-eF450, CD4-PE, CD25PerCPCy5.5, CD69-PC7, TCRVa2-APC, CD8-AF700, CD3-eF780; CFSE; 7-AAD • Acquisition on Beckman-Coulter Gallios, Analysis using Kaluza Software OT-I Transfer to Mice with B16-F10-OVA Tumors • Day 0: 100000 B16-F10-OVA tumor cells were inoculated subcutaneously at the flank of WT-mice • Day 7: OT-I cells were transferred in PBS (3*10^6. […]

OT-II cells = assay: OT-II transfer model, oral administration: antigen-specific T cell proliferation and CD69; type: in vivo, mouse; conditions: mice
Experimental: as §1

[1] = tested on: CD8-positive immune cells & M21 melanoma cells; assay: CD8-positive immune cells alone or in co-culture with M21 melanoma cells: IFN-gamma, IL-2, granzyme; type: cell-based, human
Experimental: Isolated PBMCs, NK cells or CD8 positive cells were plated in Xvivo medium at 1.5*10^5 cells per in 96 well culture plates in the presence of 0.3*10^4 tumor cells where indicated. Cytokine secretion was determined by ELISA, immune cell activation (using Beckman-Coulter Abs CD25-PC5, CD69-PC7), cell viability and numbers by flow cytometry (Beckman-Coulter FC500 or Gallios) using 7-AAD exclusion as criterion for living cells. CD8-positive immune cells were isolated from PBMCs and were incubated with and without compound example 67, either alone or in co-culture with M21 melanoma cells.

CD4 T cells = assay: CD69 expression on aCD3/aCD28 stimulated isolated human CD4 T cells (flow cytometry); type: cell-based; conditions: 24 h after TCR stimulation, read-out: Activity Class CD69 (CD4)
Method in brief: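 Isolated CD4 and CD8 T cells plated at 80000 cells per well in Xvivo medium and stimulated with anti-CD3/28 mAbs in presence of compound. CD69 expression measured by flow cytometry 24 h after TCR stimulation.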

[2] = 0.03 μM, CD8 only (no tumor cells)
[3] = 0.10 μM, CD8 only (no tumor cells)
[4] = 0.30 μM, CD8 only (no tumor cells)
[5] = 1 μM, CD8 only (no tumor cells)
[6] = 3 μM, CD8 only (no tumor cells)
[7] = 10 μM, CD8 only (no tumor cells)

N[C@H]1CS(=O)(=O)c2cc(F)c(C(=O)NC3CC3(F)F)cc2N(Cc2ccc(Cl)cc2)C1=O (stereo partly drawn) [Example 1, (3R)-3-amino-5-[(4-chlorophenyl)methyl]-N-(2,2-difluorocyclopropyl)-8-fluoro-1,1,4-trioxo-2,3,4,5-tetrahydro-1λ^6,5-benzothiazepine-7-carboxamide hydrochloride]
OT-I T cell proliferation (OT-I T cells; spleen): significantly (p=0.006) increased
OT-I T cell proliferation (OT-I T cells; tumor-draining lymphnodes): highly significantly (p=0.0002) enhanced
Proliferation [% proliferated OT-I T cells] (OT-I T cells; Lymph node): 12.28%
Proliferation [% proliferated OT-I T cells] (OT-I T cells; Spleen): 8.62%
Proliferated OT-II cells [% gated] average (OT-II cells; LPS & OVA vaccination, 10 mg/kg dosed orally, splenocytes day 3): 29.03 % gated
CD69 on transferred OT-II cells (OT-II cells; LPS & OVA, 10 mg/kg orally): CD69 was not further upregulated
Proliferation of OT-II cells (OT-II cells; LPS & OVA, 10 mg/kg orally, versus no compound): highly significantly (p<0.00001) enhanced

CCCCNC(=O)c1ccc2c(c1)N(Cc1ccc(OC(F)(F)F)cc1)C(=O)[C@@H](N)CS2(=O)=O.Cl [Example 67, (3R)-3-amino-N-butyl-1,1,4-trioxo-5-{[4-(trifluoromethoxy)phenyl]methyl}-2,3,4,5-tetrahydro-1λ^6,5-benzothiazepine-7-carboxamide hydrochloride]
Granzyme [ng/ml] avg ([1]; 0.03 μM, CD8 cells & M21): 0.10 ng/mL
IFN-gamma [ng/ml] avg ([1]; 0.03 μM, CD8 cells & M21): 0.06 ng/mL
IL-2 [ng/ml] avg ([1]; 0.03 μM, CD8 cells & M21): 1.32 ng/mL
Granzyme [ng/ml] avg [1, 2]: 0.01 ng/mL
IFN-gamma [ng/ml] avg [1, 2]: Below
IL-2 [ng/ml] avg [1, 2]: Below
Granzyme [ng/ml] avg ([1]; 0.10 μM, CD8 cells & M21): 0.12 ng/mL
IFN-gamma [ng/ml] avg ([1]; 0.10 μM, CD8 cells & M21): 0.15 ng/mL
IL-2 [ng/ml] avg ([1]; 0.10 μM, CD8 cells & M21): 2.13 ng/mL
Granzyme [ng/ml] avg [1, 3]: 0.01 ng/mL
IFN-gamma [ng/ml] avg [1, 3]: Below
IL-2 [ng/ml] avg [1, 3]: Below
Granzyme [ng/ml] avg ([1]; 0.30 μM, CD8 cells & M21): 0.18 ng/mL
IFN-gamma [ng/ml] avg ([1]; 0.30 μM, CD8 cells & M21): 0.20 ng/mL
IL-2 [ng/ml] avg ([1]; 0.30 μM, CD8 cells & M21): 2.75 ng/mL
Granzyme [ng/ml] avg [1, 4]: 0.01 ng/mL
IFN-gamma [ng/ml] avg [1, 4]: Below
IL-2 [ng/ml] avg [1, 4]: Below
Granzyme [ng/ml] avg ([1]; 1 μM, CD8 cells & M21): 0.34 ng/mL
IFN-gamma [ng/ml] avg ([1]; 1 μM, CD8 cells & M21): 0.40 ng/mL
IL-2 [ng/ml] avg ([1]; 1 μM, CD8 cells & M21): 3.38 ng/mL
Granzyme [ng/ml] avg [1, 5]: 0.02 ng/mL
IFN-gamma [ng/ml] avg [1, 5]: Below
IL-2 [ng/ml] avg [1, 5]: Below
Granzyme [ng/ml] avg ([1]; 3 μM, CD8 cells & M21): 0.43 ng/mL
IFN-gamma [ng/ml] avg ([1]; 3 μM, CD8 cells & M21): 0.54 ng/mL
IL-2 [ng/ml] avg ([1]; 3 μM, CD8 cells & M21): 3.44 ng/mL
Granzyme [ng/ml] avg [1, 6]: 0.01 ng/mL
IFN-gamma [ng/ml] avg [1, 6]: Below
IL-2 [ng/ml] avg [1, 6]: Below
Granzyme [ng/ml] avg ([1]; 10 μM, CD8 cells & M21): 0.37 ng/mL
IFN-gamma [ng/ml] avg ([1]; 10 μM, CD8 cells & M21): 0.68 ng/mL
IL-2 [ng/ml] avg ([1]; 10 μM, CD8 cells & M21): 3.26 ng/mL
Granzyme [ng/ml] avg [1, 7]: 0.02 ng/mL
IFN-gamma [ng/ml] avg [1, 7]: Below
IL-2 [ng/ml] avg [1, 7]: Below
tumor-cell contact mediated release of granzyme ([1]; CD8-positive immune cells in co-culture with M21): enhanced
production of IL-2 and IFN-gamma ([1]; CD8-positive immune cells in co-culture with M21 melanoma cells): enhanced production of both cytokines specifically upon tumor cell contact
enhancement of IL-2 and IFN-gamma production ([1]; CD8-positive immune cells in the absence of tumor cells): such effect was not detected in the absence of tumor cells

Cl.N[C@H]1CS(=O)(=O)c2cc(F)c(C(=O)NCCCC(F)(F)F)cc2N(Cc2ccc(Cl)cc2)C1=O [Example 70, (3R)-3-amino-5-[(4-chlorophenyl)methyl]-8-fluoro-1,1,4-trioxo-N-(4,4,4-trifluoro-butyl)-2,3,4,5-tetrahydro-1λ^6,5-benzothiazepine-7-carboxamide hydrochloride]
EC50 (CD4 T cells): < 1580 nM
